Assay results taken from US20240084353A1, “PROCESS TO PRODUCE MONO-RHAMNOLIPIDS” (Conopco, Inc., d/b/a UNILEVER, priority 2021, published 2024).

Tested on: α-L-rhamnosidase from A. terreus
Experiment: Influence of rhamnose excess on rhamnosidase activity (product inhibition)
Type: biochemical, Aspergillus terreus
Conditions: pNPR substrate, rhamnose solutions 0.6-3 mM added 1:1:1, pH 6.5, 40° C., 30 minutes
Procedure: The activity is expressed as the changes in time of the relative absorbance at 405 nm. The absorbance was measured every 30 sec. Substrate was used at 100 μM. The analysis was performed only for α-l-rhamnosidase from A. terreus. The influence of rhamnose excess on enzyme activity was investigated using the same colorimetric method as described above (See FIG. 1). The pNPR substrate was first dissolved in DMSO, with concentration adjusted to 300 μM in 100 mM sodium phosphate buffer pH 6.5. Enzymes were diluted to concentration of 30 μg/mL in 100 mM sodium phosphate buffer pH 6.5. Following sequence of rhamnose concentrations were prepared in 100 mM sodium phosphate buffer pH 6.5: 0.6 mM, 1.2 mM, 1.8 mM, 2.4 mM, 3 mM. 240 μL of the total reaction mixture was prepared by adding the substrate solution, the enzyme solution and the rhamnose solution in 1:1:1 ratio. The activity assay was performed on 96-well Microtiter UV plate by Thermo Scientific (Waltham, MA USA). All reactions were done at pH 6.5 and in temperature 40° C. The changes in absorbance were monitored at 405 nm for 30 minutes in Microplate reader Varioskan® Flash.

substrate conversion rate with increasing amount of rhamnose added: decreased
SMILES: C[C@H](O)[C@H](O)[C@@H](O)[C@@H](O)C=O [rhamnose]
